Patent publication US20260083864A1, “CONTRAST AGENTS FOR USE IN DIAGNOSTIC COMPUTED TOMOGRAPHY IMAGING” (Bayer Aktiengesellschaft, priority 2022, published 2026)

How the values were obtained:
[1] = Water solubility in aqueous buffer; conditions: aqueous buffer 10 mM Tris-HCl, pH 7.4, 20° C.
Method: The solid compounds were added stepwise to the buffer solution. More substance is added once all the suspended material is dissolved until an equilibrium between undissolved and dissolved substance is reached. The suspension was mixed using a shaker (Heidolph Reax 2000) and treated 5 min in an ultrasound bath (Bandelin, Sonorex Super RK255H).

[2] = Relaxivity measurements at 1.41 T in water; assay type: physicochemical; conditions: 37° C., normalized to Gd
Method: (§1) Relaxivity measurements at 1.41 T were performed using a MiniSpec mq60 spectrometer (Bruker Analytik, Karlsruhe, Germany) operating at a resonance frequency of 60 MHz and a temperature of 37° C. The T1 relaxation times were determined using the standard inversion recovery (IR) method with a fixed relaxation delay of at least 5×T1. The variable inversion time (TI) was calculated automatically by the standard software of the MiniSpec mq60 (8 steps). The T2 measurements were performed by using a Carr-Purcell-Meiboom-Gill (CPMG) pulse sequence, applying a relaxation delay of at least 5×T1.
Each relaxivity measurement was performed using three different Gd concentrations (3 concentrations between 0.05 and 2 mM). […] Human plasma preparation: For each experiment fresh blood was taken from a volunteer using 10 mL citrate-tubes (Sarstedt S-Monovette 02.1067.001, 10 mL, Citrate). The 10 mL citrate-tubes were carefully inverted 10 times to mix blood and anticoagulant and centrifuged for 15 min at 1811 g at RT (Eppendorf, Centrifuge 5810R).
(§2) The relaxivities n (where i=1, 2) were calculated based on the measured relaxation rates Ri in water and plasma: […]

[3] = Relaxivity measurements at 1.41 T in human plasma; assay type: physicochemical; conditions: 37° C., normalized to Gd
Method: as §1, with “The” for “Relaxivity measurements at 1.41 T were performed using a MiniSpec mq60 spectrometer (Bruker Analytik, Karlsruhe, Germany) operating at a resonance frequency of 60 MHz and a temperature of 37° C. The”
Each relaxivity measurement was performed using three different Gd concentrations (3 concentrations between 0.05 and 2 mM).
as §2

OATP1B1 = target: T1, OATP1B1 (Homo sapiens, UniProt Q9Y6L6); assay: Uptake into stable transfected OATP1B1 HEK 293 cells; assay type: cell-based; conditions: for Uptake into OATP1B1-HEK 293 cells: 40 min incubation, relative to RC1 (Gd-EOB-DTPA); for Inhibition Rifampicine: uptake into OATP1B1-HEK 293 cells
T1 sequence (Q9Y6L6 1-691): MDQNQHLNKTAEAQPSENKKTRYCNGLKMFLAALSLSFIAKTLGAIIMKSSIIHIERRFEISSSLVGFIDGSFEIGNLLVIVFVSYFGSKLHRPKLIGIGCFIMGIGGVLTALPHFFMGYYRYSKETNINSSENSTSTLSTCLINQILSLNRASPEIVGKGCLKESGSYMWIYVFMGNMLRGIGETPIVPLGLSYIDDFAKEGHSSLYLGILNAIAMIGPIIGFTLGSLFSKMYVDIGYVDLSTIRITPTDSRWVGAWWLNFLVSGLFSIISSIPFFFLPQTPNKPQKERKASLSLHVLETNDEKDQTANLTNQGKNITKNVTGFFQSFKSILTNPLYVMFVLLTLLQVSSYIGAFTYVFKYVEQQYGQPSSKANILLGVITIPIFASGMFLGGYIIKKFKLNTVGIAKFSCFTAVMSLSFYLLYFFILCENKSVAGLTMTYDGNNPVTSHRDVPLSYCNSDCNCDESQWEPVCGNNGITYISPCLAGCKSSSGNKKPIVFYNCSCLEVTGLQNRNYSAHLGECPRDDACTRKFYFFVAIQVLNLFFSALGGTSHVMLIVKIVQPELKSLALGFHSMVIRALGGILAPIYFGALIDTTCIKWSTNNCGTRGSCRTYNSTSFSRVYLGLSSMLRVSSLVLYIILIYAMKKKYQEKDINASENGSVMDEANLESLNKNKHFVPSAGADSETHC
Method: (§3) Cryopreserved cells were shortly thawed in water bath and diluted in 10 mL warm culture medium (37° C.). After medium change the cells were grown for 3d in a 25 cm^2 cell culture flask. After 3 to 5d the cells were transferred into 75 cm^2 flasks. […] All test items were prepared in transport buffer at a final concentration of 100 M from stock solutions (180 to 500 mM concentration). The OATP1B1 HEK 293 cells were incubated with test solutions (test item in transport buffer 500 L) for 40 min on a thermoshaker without shaking (PHMP, Fa. Grant Bio). Triplicates were performed for each test item. After incubation the cells were washed with 2 mL of cold PBS (+) buffer (Dulbeccos PBS+, Fa. Gibco). […] As a reference standard Gd-EOB-DTPA (gadoxetate) is used in the same well plate.

OATP1B3 = target: T2, OATP1B3 (Homo sapiens, UniProt Q9NPD5); assay: Uptake into stable transfected OATP1B3 HEK 293 cells; assay type: cell-based; conditions: for Uptake into OATP1B3-HEK 293 cells: 40 min incubation, relative to RC1 (Gd-EOB-DTPA); for Inhibition Rifampicine: uptake into OATP1B3-HEK 293 cells
T2 sequence (Q9NPD5 1-702): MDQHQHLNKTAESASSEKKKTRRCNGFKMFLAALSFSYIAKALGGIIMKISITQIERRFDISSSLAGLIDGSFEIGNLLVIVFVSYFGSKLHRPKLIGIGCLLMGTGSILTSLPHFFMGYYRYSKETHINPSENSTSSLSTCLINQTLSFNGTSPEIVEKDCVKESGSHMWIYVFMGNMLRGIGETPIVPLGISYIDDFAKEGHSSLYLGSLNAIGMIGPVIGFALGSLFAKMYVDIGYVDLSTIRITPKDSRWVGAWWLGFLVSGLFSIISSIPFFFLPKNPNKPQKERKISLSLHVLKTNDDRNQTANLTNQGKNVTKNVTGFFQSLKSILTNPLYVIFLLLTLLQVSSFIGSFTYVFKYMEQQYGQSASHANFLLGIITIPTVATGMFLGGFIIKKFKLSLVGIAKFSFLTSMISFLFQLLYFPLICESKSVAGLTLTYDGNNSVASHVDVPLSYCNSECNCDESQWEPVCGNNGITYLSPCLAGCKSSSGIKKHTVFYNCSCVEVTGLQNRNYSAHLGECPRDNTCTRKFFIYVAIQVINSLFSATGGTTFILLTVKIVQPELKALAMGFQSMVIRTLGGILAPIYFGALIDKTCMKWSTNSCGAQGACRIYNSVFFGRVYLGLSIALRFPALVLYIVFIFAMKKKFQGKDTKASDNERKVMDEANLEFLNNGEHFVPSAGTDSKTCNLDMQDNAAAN
Method: as §3, with “100 µM” for “100 M”, “The OATP1B3” for “The OATP1B1”, “500 μL)” for “500 L)”

[4] = Partition coefficient (log P butanol/buffer); assay type: physicochemical; conditions: 1-butanol / 50 mM Tris-HCl, pH 7.4, room temperature
[5] = tested on: freshly isolated rat hepatocytes; assay: Uptake into freshly isolated rat hepatocytes; conditions: for Uptake rat hepatocytes: 100 μmol Gd/L, 10 min, 37° C., relative to RC1 (Gd-EOB-DTPA); for Inhibition Rifampicine: rat hepatocyte uptake, test item and Rifampicine 1:1, each 100 μM
Method: After incubation the adherent hepatocytes were washed once with 37° C. Hepes carbonate transport buffer (500 μL/well). The test items and RC1 were prepared from stock solutions (180 to 500 mM concentration) in Hepes carbonate transport buffer at pH 7.4 to reach a final concentration of 100 μmol Gd/L. The specific uptake of the test item or RC1 into rat hepatocytes via OATP1B1 and OATP1B3 was challenged using a known OATP1B1/1B3 inhibitor (Rifampicine, Fa. Sigma R3501, test item and inhibitor 1:1 each 100 μM final concentration). The prepared rat hepatocyte plates were incubated with test solutions (500 μL/well) at 37° C. for 10 min using a thermoshaker (Fa. Grant Bio, PHMP). Triplicates were performed for each test item. After incubating the cells were washed once with cold PBS buffer (Fa. Gibco, Dulbeccos PBS (+)). After washing the intact hepatocytes were lysed by addition of 500 μL cold 0.01% Triton-X 100 in Millipore water for 1 h. […] As a reference standard RC1 is used in the same well plate. The hepatocyte uptake of the test compound is calculated relative to RC1 (resulting in the unit % of RC1).

SMILES	Solubility [1] [mM]	r1 water [2] [L/mmol/s]	r1 human plasma [3] [L/mmol/s]	Uptake into OATP1B1-HEK 293 cells (OATP1B1)	Inhibition Rifampicine (OATP1B1) [% inhibition]	Uptake into OATP1B3-HEK 293 cells (OATP1B3)	Inhibition Rifampicine (OATP1B3) [% inhibition]	Log P (partition coefficient butanol/buffer) [4]	Uptake rat hepatocytes [5]	Inhibition Rifampicine [5] [% inhibition]
CCOCCOCCOc1ccc(C[C@@H](C(=O)O)N2CCN(CC(=O)[O-])CCN(CC(=O)[O-])CCN(CC(=O)[O-])CC2)cc1.[Gd+3] [Example 3, gadolinium 2,2′,2″-{10-[(1S)-1-carboxy-2-{4-[2-(2-ethoxyethoxy)ethoxy]phenyl}ethyl]-1,4,7,10-tetraazacyclododecane-1,4,7-triyl}triacetate]	>331	4.3	6.5	63 % of RC1	29	18 % of RC1	89	−1.61	47 % of RC1	96
CCOCCOCCOCCOc1ccc(CC(C(=O)O)N2CCN(CC(=O)[O-])CCN(CC(=O)[O-])CCN(CC(=O)[O-])CC2)cc1.[Gd+3] (centres unmarked) [Example 10, gadolinium 2,2′,2″-{10-[1-carboxy-2-(4-{2-[2-(2-ethoxyethoxy)ethoxy]ethoxy}phenyl)ethyl]-1,4,7,10-tetraazacyclododecane-1,4,7-triyl}triacetate]	>272	4.5	6.6	87 % of RC1	43	13 % of RC1	95	−1.70	49 % of RC1	90
CCOCCOCCOCCOc1ccc(CC(C(=O)O)N2CCN(CC(=O)[O-])CCN(C(COC)C(=O)[O-])CCN(CC(=O)[O-])CC2)cc1.[Gd+3] (centres unmarked) [Example 13, gadolinium 2-{7-[1-carboxy-2-(4-{2-[2-(2-ethoxyethoxy)ethoxy]ethoxy}phenyl)ethyl]-4,10-bis(carboxylatomethyl)-1,4,7,10-tetraazacyclododecan-1-yl}-3-methoxypropanoate]	67	5.2	7.0	109 % of RC1	30	31 % of RC1	93	−1.53	49 % of RC1	86
CCCCOc1ccc(CC(C(=O)O)N2CCN(CC(=O)[O-])CCN(CC(=O)[O-])CCN(CC(=O)[O-])CC2)cc1.[Gd+3] (centres unmarked) [Example 14, gadolinium 2,2′,2″-{10-[2-(4-butoxyphenyl)-1-carboxyethyl]-1,4,7,10-tetraazacyclododecane-1,4,7-triyl}triacetate]	5	4.3	13.3	856 % of RC1	98	69 % of RC1	97	−0.38	96 % of RC1	98
CCOCCOCCOc1ccc(CCC[C@H](C(=O)O)N2CCN([C@@H](CO)C(=O)[O-])CCN([C@@H](CO)C(=O)[O-])CCN([C@@H](CO)C(=O)[O-])CC2)cc1.[Gd+3] [Example 18, gadolinium (2S,2'S,2″'S)-2,2′,2″-{10-[(1R)-1-carboxy-4-{4-[2-(2-ethoxyethoxy)ethoxy]phenyl}butyl]-1,4,7,10-tetraazacyclododecane-1,4,7-triyl}tris(3-hydroxypropanoate)]	>354	5.5	7.7		76		96	−1.11	75 % of RC1	91
CCOCCOCCOc1ccc(CCC[C@H](C(=O)O)N2CCN([C@H](CO)C(=O)[O-])CCN([C@H](CO)C(=O)[O-])CCN([C@H](CO)C(=O)[O-])CC2)cc1.[Gd+3] [Example 19, gadolinium (2R,2′R,2″R)-2,2′,2″-{10-[(1R)-1-carboxy-4-{4-[2-(2-ethoxyethoxy)ethoxy]phenyl}butyl]-1,4,7,10-tetraazacyclododecane-1,4,7-triyl}tris(3-hydroxypropanoate)]	>410	5.3	9.0		92		96	−0.95	92 % of RC1	92
